The source of these data is patent US20020132276A1, “FACS method for detecton of GPIIb/IIIa inhibitor dependent activators in plasma samples” (priority 1999, published 2002).

Experiment [1] deals with platelet CD62. In words: Detection of ADP as a GPIIb/IIIa DDPAS by DDPASFCA
The following applies: for + compound Med F12: + Compound A 1 μM; for no compound Med F12: no Compound A; for Delta Med F12: with minus without Compound A 1 μM. The format is cell-based, human. The procedure:
Adenosine diphosphate (ADP) was evaluated as a possible DDPAS as follows: Compound A (final concentration 1 μM) or vehicle was added to 25 μL of freshly prepared PRP in wells of a 96-well microtiter plate. Another set of wells received vehicle. After 10 minutes, 2.5 μL of from each well was transferred to microtiter wells containing only 20 μL of anti-CD62-PE. After incubation for 30 minutes, samples were analyzed by flow cytometry as in Example 1.

The test system of experiment [2] is platelet CD62. In words: DDPASFCA in alternative microtiter plates (Costar Serocluster #3897 versus #3898). The format is cell-based, human. Particulars: with minus without Compound A 200 nM. As to the method:
ADP and DPC38 were used as sources of DDPASs. 2 μL of citrated PRP (DPC3) was added to either Costar Serocluster® 96 well V-bottom microtiterplates (#3897) or #3898 microtiter plates (Costar Serocluster®) (rated as “hydrophilic” in nature by the manufacturer). Platelets were then treated with and without Compound A (200 nM) with the indicated concentrations of ADP. Similarly, DDPAS positive PRP (DPC38) was added to wells of both types of plates and treated with and without Compound A (200 nM). Reactions were incubated without shaking for 120 minutes. After this time, 20 μL of phycoerythrin conjugated anti-CD62 (anti-CD62-PE, Bectin Dickinson) was added. After 30 minutes the samples were diluted with 150 μL flow buffer and bound anti-CD62-PE measured as described in Example 1.
Delta SC=Delta Fluorescence for Costar Serocluster microtiter plates
Delta H=Delta Fluorescence for H3898 microtiter plates

Setting [3] is: platelet donor DPC3, ADP 100 uM.

As to `Nc1ncnc2c1ncn2[C@@H]1O[C@H](COP(=O)(O)OP(=O)(O)O)[C@@H](O)[C@H]1O` [ADP, Adenosine diphosphate], the entries for the “+ compound Med F12” value with platelet CD62 [1] (ADP 0.4 μM final), with platelet CD62 [1] (ADP 2 μM final) and in the experiment with platelet CD62 [1] (ADP 10 μM final) were 20, 89 and 208, respectively. Besides, the “no compound Med F12” value was found to be 14 with platelet CD62 [1] (ADP 0.4 μM final); 48 in the experiment on platelet CD62 [1] (ADP 2 μM final); 126 with platelet CD62 [1] (ADP 10 μM final, PRP, 10 minutes). Besides, the “Delta Med F12” value in the experiment on platelet CD62 [1] (ADP 0.4 μM final) amounted to 5; in the experiment with platelet CD62 [1] (ADP 2 μM final) it was 40; in the experiment on platelet CD62 [1] (ADP 10 μM final) it was 82. Further, the “Delta CS (Delta Fluorescence for Costar Serocluster microtiter plates)” value was found to be 89 in the experiment on platelet CD62 [2] (platelet donor DPC3, ADP 10 uM) and 82 in the experiment with platelet CD62 [2] (setting [3]). Besides, the “Delta H (Delta Fluorescence for H3898 microtiter plates)” value in the experiment with platelet CD62 [2] (platelet donor DPC3, ADP 10 uM) was 157; with platelet CD62 [2] (setting [3]), 168.
